Our source for the tumor growth inhibition, body weight loss and body weight lost values is patent US20100216779A1 (GLAXOSMITHKLINE LLC, priority 2007, published 2010).

Series [1] has as its system BT474 cell tumors (breast carcinoma cell line). The series is described as follows: In vivo efficacy, BT474 tumor bearing mice. Set-up: species or system mouse. How it is done:
(§1) In addition to the LISN xenograft efficacy studies, Example 57 has also been assessed in vivo in two other mouse models of cancer, including: Colo-205 tumor bearing mice (colon carcinoma cell line) and BT474 tumor bearing mice (breast carcinoma cell line). Forty female nude mice bearing Colo-205 tumors (average tumor size of 200 mm3) were randomized into five groups of eight mice and dosed with either vehicle (20% SBE pH3.5) or Example 57 at 100, 30, 10 mg/kg QD or 30 mg/kg BID for 21 days. The groups of mice dosed with the higher doses of Example 57 (100 mg/kg QD and 30 mg/kg BID) lost greater than 20% body weight within 10 days of dosing so were taken off the study and allowed to recover. […] The higher doses of 100 mg/kg QDx10 and 30 mg/kg BIDx10 achieved 72 and 49% tumor growth inhibition respectively.
Due to the body weight loss seen with the higher doses in the Colo-205 xenograft efficacy study, the dosing regime was altered for the follow up BT474 study. Forty female nude mice bearing subcutaneous BT474 cell tumors (average tumor size of 200 mm3) were randomized into five groups each containing eight mice and dosed with either vehicle (20% SBE pH3.5) or Example 57 at 60, 30 or 15 mg/kg QD or 15 mg/kg BID for 21 days. Note the maximal QD dose was reduced from 100 mg/kg to 60 mg/kg and the BID dose reduced from 30 mg/kg to 15 mg/kg. In addition to these changes the mice in this study were given weekend holidays from dosing.

Series [2] deals with LISN cell (mouse 3T3 fibroblasts transduced with human IGF-1R) tumors. The series is described as follows: In vivo efficacy, mice bearing LISN cell tumors. The following applies: LISN. As for the experimental part:
E. In Vivo Efficacy—Mouse Models
The efficacy of the compounds of Examples 57 and 58 were assessed together in an in vivo efficacy experiment performed on mice bearing LISN cell (mouse 3T3 fibroblasts transduced with human IGF-1R) tumors. Fifty six female nude mice bearing subcutaneous LISN cell tumors were measured for tumor size and body weight and block randomized into seven groups of eight mice with an equal average tumor volume of approximately 200 mm3. Mice were dosed with either vehicle (20% SBE pH3.5), Example 57 or Example 58. The dosing schedules for each compound were based on previous experiments with the compounds and doses chosen to give the highest tumor growth inhibition and a dose response. Example 58 was dosed at 30, 100 and 300 mg/kg QD for 21 days while Example 57 was dosed at 30 mg/kg QD for 21 days, 15 mg/kg BID for 21 days and 30 mg/kg QDx3 days/week for 3 weeks.
The tumors on mice being treated with vehicle grew with the expected exponential growth throughout the 21 day study. […] The lower dose of 30 mg/kg of Example 58 achieved 28% tumor growth inhibition.
The efficacy of the compounds of Examples 237 and 219 were assessed together in an in vivo efficacy experiment performed on mice bearing LISN cell (mouse 3T3 fibroblasts transduced with human IGF-1R) tumors. Sixty four female nude mice bearing subcutaneous LISN cell tumors were measured for tumor size and body weight and block randomized into eight groups of eight mice with an equal average tumor volume of approximately 362 mm^3. Mice were dosed with either vehicle (20% SBE pH3.5), Example 237 or Example 219. The dosing schedules for each compound were based on previous experiments with the compounds and doses chosen to give the highest tumor growth inhibition and a dose response. Example 237 was administered at 30 and 60 mg/kg QD for 21 days and 30 mg/kg BID for 21 days while Example 219 was administered at 50 and 100 mg/kg QD for 21 days, 25 and 50 mg/kg BID for 21 days.
The tumors on mice being treated with vehicle grew with the expected exponential growth throughout the 21 day study. […] The lower dose of 30 mg/kg QD of Example 237 achieved 15% tumor growth inhibition at day 21 (note: 2 animals were euthanized prior to the last measurement). […] This recovered to 3% by the end of dosing and fully recovered after dosing was concluded. […] This recovered fully within 4 days after the completion of dosing.

Series [3] relates to Colo-205 tumors (colon carcinoma cell line). The series is described as follows: In vivo efficacy, Colo-205 tumor bearing mice. Set-up: species or system mouse. How it is done:
as §1

Consider `COc1cc(N2CCC(N3CCN(CCF)CC3)CC2)ccc1Nc1nccc(-c2c(-c3cccc(C(=O)Nc4c(F)cccc4F)c3)nc3ccccn23)n1` [Example 57, N-(2,6-difluorophenyl)-3-[3-(2-{[4-{4-[4-(2-fluoroethyl)-1-piperazinyl]-1-piperidinyl}-2-(methyloxy)phenyl]amino}-4-pyrimidinyl)imidazo[1,2-a]pyridin-2-yl]benzamide], for which the tumor growth inhibition in series [1] (BT474, 15 mg/kg BIDx21, weekend holidays from dosing) is 54%; in series [1] (BT474, 30 mg/kg QDx21, weekend holidays from dosing), 37%; in series [1] (BT474, 60 mg/kg QDx21, weekend holidays from dosing) it was 37%; in series [1] (BT474, third QDx21 dose group (15 mg/kg QD per study design), weekend holidays from dosing), 16%; in series [2] (15 mg/kg BID for 21 days), 50%; in series [2] (30 mg/kg QD for 21 days), 34%. Besides, the tumor growth inhibition in series [2] (30 mg/kg QDx3 days/week for 3 weeks) was 69%; in series [3] (Colo-205, 10 mg/kg QDx21) it was 17%; in series [3] (Colo-205, 30 mg/kg BIDx10), 49%; in series [3] (Colo-205, 30 mg/kg QDx21), 40%; in series [3] (Colo-205, 100 mg/kg QDx10), 72%. The body weight loss entry in series [1] (BT474, all groups) is on record as “no body weight loss”; in series [2] (30 mg/kg QD and 15 mg/kg BID treated groups), “no body weight loss”; in series [2] (30 mg/kg QDx3 days/week for 3 weeks, over the three consecutive days of dosing, recovered in between doses) it was “significant body weight loss”; in series [3] (Colo-205, 30 and 10 mg/kg QDx21), “no body weight loss”. Further, the body weight lost entry in series [3] (Colo-205, 100 mg/kg QD and 30 mg/kg BID, within 10 days of dosing) is listed as “greater than 20%”.
